Source: patent US11827657B2, “Boron containing pyrazole compounds, compositions comprising them, methods and uses thereof” (BOEHRINGER INGELHEIM ANIMAL HEALTH USA INC., priority 2020, dated 2023)

Each compound was assayed against JAK1 (Homo sapiens, UniProt P23458) (assay: Biochemical Kinase Assay (JAK), 33P-ATP filter-binding). Settings: Biochemical Kinase Inhibition Assay; potency level of IC50; read-out: JAK1 (range).
Procedure: Biochemical Kinase Assay Protocol (JAK) • Reagent: Base Reaction buffer; 20 mM Hepes (pH 7.5), 10 mM MgCl2, 1 mM EGTA, 0.02% Brij™ 35, 0.02 mg/ml BSA, 0.1 mM Na3VO4, 2 mM DTT, 1% DMSO, where required cofactors were added individually to each kinase reaction.
Reaction Procedure: • 1. Prepared indicated substrate in freshly prepared Base Reaction Buffer • 2. Delivered any required cofactors to the substrate solution above • 3. Delivered indicated kinase into the substrate solution and gently mix • 4. Delivered compounds in DMSO into the kinase reaction mixture by Acoustic technology (Echo550; nanoliter range), incubated for 20 minutes at room temperature • 5. Delivered 33P-ATP into the reaction mixture to initiate the reaction. • 6. Incubated kinase reaction for 2 hours at room temperature • 7. Reactions were spotted onto P81 ion exchange paper • 8. Detected kinase activity by filter-binding method.
Compounds according to the present invention were tested in the Biochemical Kinase Assay Protocol. The results are provided below in Table 1, wherein the potency levels A, B, and C in the columns labeled JAK1 (range) correspond to IC50 as follows: A<10 nM; B=10-50 nM and C>50 nM. The Example Number entries formatted ##a represent stereoisomer one and entries formatted ##b represent stereoisomer two.

JAK1, sequence (P23458 whole entry, species assumed): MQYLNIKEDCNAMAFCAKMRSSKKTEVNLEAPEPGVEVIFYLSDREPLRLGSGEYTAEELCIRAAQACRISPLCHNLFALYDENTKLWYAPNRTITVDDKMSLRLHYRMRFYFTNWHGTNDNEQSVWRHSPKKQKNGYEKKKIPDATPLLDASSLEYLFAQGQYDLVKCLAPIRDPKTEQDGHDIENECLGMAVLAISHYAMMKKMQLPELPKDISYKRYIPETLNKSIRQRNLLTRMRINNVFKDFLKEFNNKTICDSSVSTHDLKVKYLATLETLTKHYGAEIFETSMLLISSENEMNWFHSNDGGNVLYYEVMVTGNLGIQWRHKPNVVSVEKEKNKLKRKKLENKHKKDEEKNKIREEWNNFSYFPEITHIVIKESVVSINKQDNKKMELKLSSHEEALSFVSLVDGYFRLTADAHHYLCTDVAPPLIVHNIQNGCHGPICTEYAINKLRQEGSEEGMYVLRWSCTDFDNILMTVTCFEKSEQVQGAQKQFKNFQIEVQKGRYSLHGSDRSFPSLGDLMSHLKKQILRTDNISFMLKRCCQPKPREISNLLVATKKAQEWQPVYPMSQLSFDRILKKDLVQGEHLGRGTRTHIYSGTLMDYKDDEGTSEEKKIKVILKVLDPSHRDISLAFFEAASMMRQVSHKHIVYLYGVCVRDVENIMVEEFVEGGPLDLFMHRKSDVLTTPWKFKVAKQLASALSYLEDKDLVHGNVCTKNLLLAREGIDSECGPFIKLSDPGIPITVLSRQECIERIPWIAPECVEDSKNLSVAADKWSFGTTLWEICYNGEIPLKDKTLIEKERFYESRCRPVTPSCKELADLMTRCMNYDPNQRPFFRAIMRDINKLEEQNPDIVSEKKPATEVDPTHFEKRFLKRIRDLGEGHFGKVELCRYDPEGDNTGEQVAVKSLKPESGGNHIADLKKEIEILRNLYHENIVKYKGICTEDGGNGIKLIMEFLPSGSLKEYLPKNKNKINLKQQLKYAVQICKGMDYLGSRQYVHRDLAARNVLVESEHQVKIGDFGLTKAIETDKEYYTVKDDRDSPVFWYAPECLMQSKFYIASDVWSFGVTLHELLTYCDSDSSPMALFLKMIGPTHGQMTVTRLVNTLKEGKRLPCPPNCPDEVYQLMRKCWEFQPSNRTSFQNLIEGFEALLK

SMILES | IC50 [nM]
N#C[C@@H]1CCOC[C@H]1n1cc(C(N)=O)c(Nc2ccc3c(c2)C=CB(O)O3)n1 (single isomer, unassigned) [Example 51a, 1-[trans-4-cyanotetrahydro-2H-pyran-3-yl]-3-[(2-hydroxy-1,2-benzoxaborinin-6-yl)amino]pyrazole-4-carboxamide] | < 10
N#C[C@@H]1CCOC[C@H]1n1cc(C(N)=O)c(Nc2cc(Cl)c3c(c2)C=CB(O)O3)n1 (single isomer, unassigned) [Example 13a, 3-[(8-chloro-2-hydroxy-1,2-benzoxaborinin-6-yl)amino]-1-[trans-4-cyanotetrahydro-2H-pyran-3-yl]pyrazole-4-carboxamide] | < 10
CC1=C(C)c2cc(Nc3nn([C@@H]4COCC[C@H]4C#N)cc3C(N)=O)ccc2OB1O (relative stereo) [Example 4, 1-(trans-4-cyanotetrahydro-2H-pyran-3-yl)-3-((2-hydroxy-3,4-dimethyl-2H-benzo[e][1,2]oxaborinin-6-yl)amino)-1H-pyrazole-4-carboxamide] | < 10
N#C[C@@H]1CCOC[C@H]1n1cc(C(N)=O)c(Nc2cc3c(c(C(F)(F)F)c2)OB(O)C=C3)n1 (single isomer, unassigned) [Example 28a, 1-[trans-4-cyanotetrahydro-2H-pyran-3-yl]-3-[[2-hydroxy-8-(trifluoromethyl)-1,2-benzoxaborinin-6-yl]amino]pyrazole-4-carboxamide] | > 50
CC(C)C1=CB(O)Oc2ccc(Nc3nn([C@@H]4COCC[C@H]4C#N)cc3C(N)=O)cc21 (single isomer, unassigned) [Example 30b, 1-[trans-4-cyanotetrahydro-2H-pyran-3-yl]-3-[(2-hydroxy-4-isopropyl-1,2-benzoxaborinin-6-yl)amino]pyrazole-4-carboxamide] | < 10
N#C[C@@H]1CCOC[C@H]1n1cc(C(N)=O)c(Nc2ccc3c(c2)COB3O)n1 (single isomer, unassigned) [Example 41b, 1-(trans-4-cyanotetrahydro-2H-pyran-3-yl)-3-((1-hydroxy-1,3-dihydrobenzo[c][1,2]oxaborol-5-yl)amino)-1H-pyrazole-4-carboxamide] | < 10
CC1=C(C)c2cc(Nc3nn([C@@H]4CCC[C@H]4C#N)cc3C(N)=O)cc(C)c2OB1O (relative stereo) [Example 24, 1-(trans-2-cyanocyclopentyl)-3-[(2-hydroxy-3,4,8-trimethyl-1,2-benzoxaborinin-6-yl)amino]pyrazole-4-carboxamide] | 10 to 50
CC(C)C1=Cc2cc(Nc3nn(C4COCCC4C#N)cc3C(N)=O)ccc2OB1O (stereo not drawn) [Example 48, 1-(trans-4-cyanotetrahydro-2H-pyran-3-yl)-3-((2-hydroxy-3-isopropyl-2H-benzo[e][1,2]oxaborinin-6-yl)amino)-1H-pyrazole-4-carboxamide] | < 10
N#C[C@@H]1CCOC[C@H]1n1cc(C(N)=O)c(Nc2cc(Cl)c3c(c2)C=CB(O)O3)n1 (single isomer, unassigned) [Example 13b, 3-[(8-chloro-2-hydroxy-1,2-benzoxaborinin-6-yl)amino]-1-[trans-4-cyanotetrahydro-2H-pyran-3-yl]pyrazole-4-carboxamide] | < 10
N#C[C@@H]1CCOC[C@H]1n1cc(C(N)=O)c(Nc2cc(F)c3c(c2)C=CB(O)O3)n1 (single isomer, unassigned) [Example 44a, 1-[trans-4-cyanotetrahydro-2H-pyran-3-yl]-3-[(8-fluoro-2-hydroxy-1,2-benzoxaborinin-6-yl)amino]pyrazole-4-carboxamide] | < 10
N#CC1CCOCC1n1cc(C(N)=O)c(Nc2cc(Cl)c3c(c2)COB3O)n1 (stereo not drawn) [Example 52, 3-((7-chloro-1-hydroxy-1,3-dihydrobenzo[c][1,2]oxaborol-5-yl)amino)-1-(trans-4-cyanotetrahydro-2H-pyran-3-yl)-1H-pyrazole-4-carboxamide] | < 10
CC1=C(C)c2cc(Nc3nn(C4COCCC4C#N)cc3C(N)=O)cc(C)c2OB1O (stereo not drawn) [Example 23, 1-(trans-4-cyanotetrahydropyran-3-yl)-3-[(2-hydroxy-3,4,8-trimethyl-1,2-benzoxaborinin-6-yl)amino]pyrazole-4-carboxamide] | < 10
CC1=C(C)c2cc(Nc3nn([C@@H]4COCC[C@H]4C#N)cc3C(N)=O)cc(C)c2OB1O (single isomer, unassigned) [Example 23a, 1-[trans-4-cyanotetrahydro-2H-pyran-3-yl]-3-[(2-hydroxy-3,4,8-trimethyl-1,2-benzoxaborinin-6-yl)amino]pyrazole-4-carboxamide] | < 10
N#C[C@@H]1CCOC[C@H]1n1cc(C(N)=O)c(Nc2ccc3c(c2)B(O)OCC3)n1 (single isomer, unassigned) [Example 42b, 1-[trans-4-cyanotetrahydro-2H-pyran-3-yl]-3-[(1-hydroxy-3,4-dihydro-2,1-benzoxaborinin-7-yl)amino]pyrazole-4-carboxamide] | < 10
CC(C)C1=Cc2cc(Nc3nn([C@@H]4CCC[C@H]4C#N)cc3C(N)=O)ccc2OB1O (relative stereo) [Example 50, 1-(trans-2-cyanocyclopentyl)-3-[(2-hydroxy-3-isopropyl-1,2-benzoxaborinin-6-yl)amino]pyrazole-4-carboxamide] | < 10
N#C[C@@H]1CCC[C@H]1n1cc(C(N)=O)c(Nc2ccc3c(c2)C=CB(O)O3)n1 (relative stereo) [Example 8, 1-(trans-2-cyanocyclopentyl)-3-[(2-hydroxy-1,2-benzoxaborinin-6-yl)amino]pyrazole-4-carboxamide] | < 10
CC1=CB(O)Oc2ccc(Nc3nn(C4COCCC4C#N)cc3C(N)=O)cc21 (single isomer, unassigned) [Example 3a, 1-[trans-4-cyanotetrahydro-2H-pyran-3-yl]-3-[(2-hydroxy-4-methyl-1,2-benzoxaborinin-6-yl)amino]pyrazole-4-carboxamide (stereoisomerone)] | < 10
N#C[C@@H]1CCOC[C@H]1n1cc(C(N)=O)c(Nc2cc(F)c3c(c2)B(O)OC3)n1 (relative stereo) [Example 1, 1-[trans-4-cyanotetrahydro-2H-pyran-3-yl]-3-[(4-fluoro-1-hydroxy-3H-2,1-benzoxaborol-6-yl)amino]pyrazole-4-carboxamide] | 10 to 50
N#C[C@@H]1CCOC[C@H]1n1cc(C(N)=O)c(Nc2ccc3c(c2)B(O)OC3)n1 (single isomer, unassigned) [Example 16a, 1-(trans-4-cyanotetrahydro-2H-pyran-3-yl)-3-((1-hydroxy-1,3-dihydrobenzo[c][1,2]oxaborol-6-yl)amino)-1H-pyrazole-4-carboxamide] | > 50
N#C[C@@H]1CCCC[C@H]1n1cc(C(N)=O)c(Nc2ccc3c(c2)B(O)OC3)n1 (relative stereo) [Example 9, 1-(trans-2-cyanocyclohexyl)-3-[(1-hydroxy-3H-2,1-benzoxaborol-6-yl)amino]pyrazole-4-carboxamide] | < 10
Cc1cc(Nc2nn(C3COCCC3C#N)cc2C(N)=O)cc2c1B(O)OC2 (stereo not drawn) [Example 6, 1-(trans-4-cyanotetrahydro-2H-pyran-3-yl)-3-[(1-hydroxy-7-methyl-3H-2,1-benzoxaborol-5-yl)amino]pyrazole-4-carboxamide] | < 10
N#C[C@@H]1CCC[C@H]1n1cc(C(N)=O)c(Nc2ccc3c(c2)B(O)OC3)n1 (relative stereo) [Example 10, 1-(trans-2-cyanocyclopentyl)-3-[(1-hydroxy-3H-2,1-benzoxaborol-6-yl)amino]pyrazole-4-carboxamide] | 10 to 50
N#C[C@@H]1CCCC[C@H]1n1cc(C(N)=O)c(Nc2ccc3c(c2)C=CB(O)O3)n1 (relative stereo) [Example 18, 1-(trans-2-cyanocyclohexyl)-3-[(2-hydroxy-1,2-benzoxaborinin-6-yl)amino]pyrazole-4-carboxamide] | < 10
CC1(C)OB(O)c2cc(Nc3nn(C4COCCC4C#N)cc3C(N)=O)ccc21 (stereo not drawn) [Example 36, 1-[trans-4-cyanotetrahydro-2H-pyran-3-yl]-3-[(1-hydroxy-3,3-dimethyl-2,1-benzoxaborol-6-yl)amino]pyrazole-4-carboxamide] | < 10
CC1=Cc2cc(Nc3nn([C@@H]4COCC[C@H]4C#N)cc3C(N)=O)ccc2OB1O (relative stereo) [Example 5, 1-(trans-4-cyanotetrahydro-2H-pyran-3-yl)-3-((2-hydroxy-3-methyl-2H-benzo[e][1,2]oxaborinin-6-yl)amino)-1H-pyrazole-4-carboxamide] | < 10
CC1=Cc2cc(Nc3nn([C@@H]4COCC[C@H]4C#N)cc3C(N)=O)cc(F)c2OB1O (single isomer, unassigned) [Example 14a, 1-[trans-4-cyanotetrahydro-2H-pyran-3-yl]-3-[(8-fluoro-2-hydroxy-3-methyl-1,2-benzoxaborinin-6-yl)amino]pyrazole-4-carboxamide] | < 10
Cc1cc2c(cc1Nc1nn([C@@H]3COCC[C@H]3C#N)cc1C(N)=O)C=CB(O)O2 (single isomer, unassigned) [Example 46a, 1-(trans-4-cyanotetrahydro-2H-pyran-3-yl)-3-((2-hydroxy-7-methyl-2H-benzo[e][1,2]oxaborinin-6-yl)amino)-1H-pyrazole-4-carboxamide] | > 50
